Key:
[1] = target: T1, [^18F]UCB-H binding in rat brain (Rattus norvegicus, UniProt Q02563); experiment: microPET blocking assay of [18F]UCB-H (Vt, Logan plot, PBIF) after pre-treatment with competitors; format: in vivo, Sprague Dawley rats; conditions: mean ± SEM, n = 5, SV2AL 10 mg/kg, SV2BL and SV2CL 3 mg/kg i.p.
T1 construct: from tissue; host or cells: brain of living Sprague Dawley rats (microPET)
Procedure: The competitors were prepared daily in a vehicle composed of distilled water containing 1% methyl cellulose (viscosity: 15 cP, Sigma-Aldrich, Overijse, Belgium) and 5% dimethyl sulphoxide (DMSO, Sigma-Aldrich, Belgium). The concentrations differed depending on the product specifications and their respective pharmacokinetics, provided by UCB Pharma s.a. The dosing used was 10 mg/kg for SV2AL, 3 mg/kg for SV2BL, and 3 mg/kg for SV2CL. All solutions were administered through the intraperitoneal (i.p.) route in a total volume of 1 mL per kg of body weight. The animals used as a control group (vehicle) received an equal volume of vehicle through the same route of administration.
The animals (n = 5 per group) were anesthetized using 4% isoflurane in air at a flow rate of 1 L/min during induction and 1.5% to 2% isoflurane in air at 0.6 L/min during maintenance. Respiration rate and rectal temperature were continuously measured using a physiological monitoring system (Minerve, France). The temperature was maintained at 37 ± 0.5 °C using an air warming system. […]
PMOD software (Version 3.6, PMOD Technologies, Zurich, Switzerland) was used to process the imaging data. […] Finally, the inverse normalization parameters were calculated and applied to the PMOD rat brain atlas to bring it in the individual PET space. […]

[2] = target: T2, human SV2A (Homo sapiens, UniProt Q7L0J3); experiment: In vitro radioligand binding assay, hSV2A (HEK293 membranes, 3H-UCB30889); conditions: 37 °C, mean n = 3 to 10, read-out: pIC50 SV2A (converted)
T2 construct: expressed in transfected cells; crude membranes
T2 sequence (Q7L0J3 whole entry): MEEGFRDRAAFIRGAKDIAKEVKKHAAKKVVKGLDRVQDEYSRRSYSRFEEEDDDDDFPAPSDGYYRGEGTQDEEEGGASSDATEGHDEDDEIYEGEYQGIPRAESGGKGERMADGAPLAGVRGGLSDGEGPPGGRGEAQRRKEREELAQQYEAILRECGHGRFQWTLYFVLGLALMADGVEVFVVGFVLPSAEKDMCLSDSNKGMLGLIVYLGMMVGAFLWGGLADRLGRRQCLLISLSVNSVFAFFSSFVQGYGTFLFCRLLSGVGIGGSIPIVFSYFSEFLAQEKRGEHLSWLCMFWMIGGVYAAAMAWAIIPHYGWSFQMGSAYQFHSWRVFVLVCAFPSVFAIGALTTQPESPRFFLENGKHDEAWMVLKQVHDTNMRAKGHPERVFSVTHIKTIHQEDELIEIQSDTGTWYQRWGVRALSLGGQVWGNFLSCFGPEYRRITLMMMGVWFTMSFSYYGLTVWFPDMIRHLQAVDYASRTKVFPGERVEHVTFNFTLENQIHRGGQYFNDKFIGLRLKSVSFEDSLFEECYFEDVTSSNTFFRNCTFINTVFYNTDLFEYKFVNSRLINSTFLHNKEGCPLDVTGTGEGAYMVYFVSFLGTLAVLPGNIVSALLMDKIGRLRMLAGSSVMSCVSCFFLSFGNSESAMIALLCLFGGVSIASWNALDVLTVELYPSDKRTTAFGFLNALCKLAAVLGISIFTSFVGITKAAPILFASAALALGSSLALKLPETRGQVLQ
Procedure: Reagents and reference compounds used were of analytical grade and obtained from various commercial sources. All cell culture reagents were obtained from Invitrogen (Merelbeke, Belgium). […] Test and reference compounds were dissolved in 100% DMSO or H2O to give 1 or 10 mM stock solution. The final DMSO concentration in assays was 0.1% unless otherwise stated. Cell lines generated at UCB Biopharma were human embryonic kidney (HEK) 293 cells expressing human SV2A, SV2B or SV2C proteins. Cells were cultured in Dulbecco’s Modified Eagle medium. The culture medium was supplemented with foetal bovine serum (FBS, 10%), 2 mM L-glutamine, 50 to 100 U/mL penicillin, 50 to 100 µg/mL streptomycin, and 200 µg/mL hygromycin B. Cells were grown at 37 °C with 95% air. Confluent cells were detached by 10 min incubation at 37 °C in phosphate buffered saline (PBS) containing 0.02% EDTA. Culture flasks were washed with 15 mL of ice-cold PBS. The cell suspension was centrifuged at 1500× g for 10 min at 4 °C. The pellet was homogenized in 15 mM Tris-HCl buffer (pH 7.5) containing 2 mM MgCl2, 0.3 mM EDTA, and 1 mM EGTA (buffer A) using a glass/teflon homogenizer. The crude homogenate was subjected to a freeze and thaw cycle in liquid nitrogen and DNAse (1 µL/mL) was then added. […] The radioactivity trapped on the filters was counted by liquid scintillation in a β-counter. […]

[3] = system: SV2A; conditions: cited from earlier work

T1 sequence (Q02563 whole entry): as the sequence (Q7L0J3 whole entry) above, with D53E, S62A, T71A, E144D, A154T, G440S, S482A, I572V, M634L counted along it

CC[C@@H](C(N)=O)N1CCCC1=O [SV2AL, levetiracetam]
mean Vt of [18F]UCB-H in the whole brain of the pre-treated group [1]: 6.0 ± 0.3 | IC50 [2]: 6.31 µM

[11CH3]n1cncc1CN1C[C@@H](c2cc(F)cc(F)c2)CC1=O [[^11C]UCB-A]
pIC50 (affinity measured in vitro) [3]: 7.9

Source: publication PMC6538996, “Evaluating the In Vivo Specificity of [^18F]UCB-H for the SV2A Protein, Compared with SV2B and SV2C in Rats Using microPET” (Molecules, 2019)
